From the NIST ThermoML archive (doi:10.1016/j.fluid.2014.04.018)
Where “and” joins values, the source holds several entries; their conditions need not be identical. Equal values may be shown once.

Conditions: Liquid, Vibrating tube method

CCCCC(CC)COC(=O)CCCCC(=O)OCC(CC)CCCC (stereo not given) [bis(2-ethylhexyl) adipate]
Conditions	mass density
293.15 K, 100 kPa	925.4 kg/m3
293.15 K, 2510 kPa	926.9 kg/m3
293.15 K, 5000 kPa	928.4 kg/m3 and 928.3 kg/m3
293.15 K, 5010 kPa	928.4 kg/m3
293.15 K, 7550 kPa	929.9 kg/m3
293.15 K, 10010 kPa	931.3 kg/m3
293.15 K, 10020 kPa	931.3 kg/m3
293.15 K, 15040 kPa	934.2 kg/m3
293.15 K, 20020 kPa	937 kg/m3
293.15 K, 30030 kPa	942.4 kg/m3
293.15 K, 40010 kPa	947.4 kg/m3
293.15 K, 40020 kPa	947.4 kg/m3
293.15 K, 50020 kPa	952.3 kg/m3
293.15 K, 68030 kPa	960.4 kg/m3 and 960.3 kg/m3
313.15 K, 100 kPa	910.3 kg/m3
313.15 K, 2530 kPa	911.9 kg/m3
313.15 K, 2540 kPa	911.9 kg/m3
313.15 K, 5020 kPa	913.5 kg/m3
313.15 K, 7540 kPa	915.2 kg/m3
313.15 K, 10010 kPa	916.7 kg/m3
313.15 K, 15010 kPa	919.8 kg/m3
313.15 K, 20000 kPa	922.8 kg/m3
313.15 K, 30030 kPa	928.7 kg/m3
313.15 K, 40020 kPa	934.1 kg/m3
313.15 K, 50010 kPa	939.3 kg/m3
313.15 K, 68050 kPa	947.9 kg/m3
333.15 K, 100 kPa	895.3 kg/m3
333.15 K, 2500 kPa	897.1 kg/m3
333.15 K, 5000 kPa	898.8 kg/m3
333.15 K, 7480 kPa	900.6 kg/m3
333.15 K, 9990 kPa	902.3 kg/m3
333.15 K, 14990 kPa	905.7 kg/m3
333.15 K, 19970 kPa	908.9 kg/m3
333.15 K, 30010 kPa	915.2 kg/m3
333.15 K, 39990 kPa	921 kg/m3
333.15 K, 50020 kPa	926.6 kg/m3
333.15 K, 68010 kPa	935.8 kg/m3
353.15 K, 100 kPa	880.4 kg/m3
353.15 K, 2500 kPa	882.3 kg/m3
353.15 K, 2510 kPa	882.3 kg/m3
353.15 K, 5000 kPa	884.2 kg/m3
353.15 K, 7510 kPa	886.1 kg/m3
353.15 K, 10000 kPa	888 kg/m3
353.15 K, 15010 kPa	891.7 kg/m3
353.15 K, 20020 kPa	895.2 kg/m3
353.15 K, 30030 kPa	902 kg/m3
353.15 K, 40020 kPa	908.2 kg/m3
353.15 K, 50010 kPa	914.1 kg/m3
353.15 K, 68010 kPa	923.9 kg/m3
373.15 K, 100 kPa	865.4 kg/m3
373.15 K, 2510 kPa	867.5 kg/m3
373.15 K, 5020 kPa	869.7 kg/m3
373.15 K, 7510 kPa	871.7 kg/m3
373.15 K, 10010 kPa	873.8 kg/m3
373.15 K, 14990 kPa	877.8 kg/m3
373.15 K, 20000 kPa	881.6 kg/m3
373.15 K, 30010 kPa	888.9 kg/m3
373.15 K, 40000 kPa	895.6 kg/m3
373.15 K, 50010 kPa	901.9 kg/m3
373.15 K, 68000 kPa	912.3 kg/m3

CCCCOC(=O)CCCCC(=O)OCCCC [dibutyl hexanedioate]
Conditions	mass density [kg/m3]
293.15 K, 100 kPa	960.6
293.15 K, 2510 kPa	962.2
293.15 K, 4990 kPa	963.7
293.15 K, 5000 kPa	963.7
293.15 K, 7510 kPa	965.3
293.15 K, 9990 kPa	966.9
293.15 K, 10000 kPa	966.9
293.15 K, 15010 kPa	969.9
293.15 K, 20000 kPa	972.9
293.15 K, 29990 kPa	978.6
293.15 K, 39800 kPa	983.9
293.15 K, 39860 kPa	983.8
293.15 K, 50020 kPa	989.1
293.15 K, 68080 kPa	997.3
293.15 K, 68090 kPa	997.7
313.15 K, 100 kPa	943.7
313.15 K, 2500 kPa	945.4
313.15 K, 5020 kPa	947.2
313.15 K, 7510 kPa	948.9
313.15 K, 9990 kPa	950.5
313.15 K, 15000 kPa	953.9
313.15 K, 20000 kPa	957.1
313.15 K, 30010 kPa	963.3
313.15 K, 39810 kPa	969
313.15 K, 50000 kPa	974.6
313.15 K, 67990 kPa	983.8
333.15 K, 100 kPa	926.8
333.15 K, 2500 kPa	928.7
333.15 K, 5010 kPa	930.6
333.15 K, 7520 kPa	932.5
333.15 K, 10010 kPa	934.3
333.15 K, 15040 kPa	938
333.15 K, 20000 kPa	941.4
333.15 K, 30030 kPa	948.2
333.15 K, 39800 kPa	954.3
333.15 K, 50030 kPa	960.4
333.15 K, 68030 kPa	970.2
353.15 K, 100 kPa	909.9
353.15 K, 2510 kPa	912
353.15 K, 5000 kPa	914.1
353.15 K, 7530 kPa	916.2
353.15 K, 10010 kPa	918.2
353.15 K, 15000 kPa	922.2
353.15 K, 20000 kPa	926
353.15 K, 30010 kPa	933.3
353.15 K, 39840 kPa	939.9
353.15 K, 49990 kPa	946.4
353.15 K, 67990 kPa	956.9
373.15 K, 100 kPa	893
373.15 K, 2490 kPa	895.3
373.15 K, 2500 kPa	895.3
373.15 K, 5020 kPa	897.6
373.15 K, 7510 kPa	899.9
373.15 K, 10010 kPa	902.1
373.15 K, 15010 kPa	906.5
373.15 K, 19980 kPa	910.6
373.15 K, 30010 kPa	918.5
373.15 K, 39810 kPa	925.7
373.15 K, 50000 kPa	932.6
373.15 K, 68010 kPa	943.8
